Structures are written as SMILES.

Series [1] concerns the target Mitogen-activated protein kinase 1 (Homo sapiens, UniProt P28482). Put plainly: DRUGMATRIX: Protein Serine/Threonine Kinase, ERK2 enzyme inhibition (substrate: Myelin Basic Protein). Set-up: species or system Escherichia coli. The settings on record: Not Active = under 50% inhibition at 10 µM.
The nature of series [2]: DRUGMATRIX: Sodium/nucleoside co-transporter radioligand binding (ligand: nitrobenzylthioinosine). In kind it is cell membranes, Cavia porcellus, Dunkin-Hartley, Cerebral cortex, Membrane. The conditions noted are these: Not Active = under 50% inhibition at 10 µM.
For series [3], the target named is Cytochrome P450 3A4 (Homo sapiens, UniProt P08684). The conditions noted are these: bti-tn-5b1-4. Note: in other assays of this panel Not Active means under 50% inhibition at 10 µM.
Cytochrome P450 3A4, sequence (P08684 whole entry): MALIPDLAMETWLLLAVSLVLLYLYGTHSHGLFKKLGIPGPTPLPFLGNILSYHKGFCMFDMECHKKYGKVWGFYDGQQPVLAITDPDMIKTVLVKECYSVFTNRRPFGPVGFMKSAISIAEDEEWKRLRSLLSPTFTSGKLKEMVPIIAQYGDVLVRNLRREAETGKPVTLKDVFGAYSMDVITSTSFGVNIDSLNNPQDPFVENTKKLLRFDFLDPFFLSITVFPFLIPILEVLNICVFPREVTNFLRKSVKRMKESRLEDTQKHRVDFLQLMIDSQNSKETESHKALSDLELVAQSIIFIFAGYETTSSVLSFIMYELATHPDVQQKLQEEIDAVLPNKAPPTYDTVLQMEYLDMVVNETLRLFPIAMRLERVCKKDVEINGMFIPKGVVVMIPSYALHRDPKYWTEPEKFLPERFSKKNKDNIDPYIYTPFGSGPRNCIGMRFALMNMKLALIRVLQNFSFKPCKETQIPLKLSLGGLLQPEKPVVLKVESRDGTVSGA
Series [4] in a line: DRUGMATRIX: Sigma2 radioligand binding (ligand: [3H] Ifenprodil). In kind it is cell membranes, Rattus norvegicus, Wistar, Brain, Membrane. The settings on record: Not Active = under 50% inhibition at 10 µM.
Series [5] deals with T1, Caspase-1 (Homo sapiens, UniProt P29466).
T1 sequence (P29466 whole entry): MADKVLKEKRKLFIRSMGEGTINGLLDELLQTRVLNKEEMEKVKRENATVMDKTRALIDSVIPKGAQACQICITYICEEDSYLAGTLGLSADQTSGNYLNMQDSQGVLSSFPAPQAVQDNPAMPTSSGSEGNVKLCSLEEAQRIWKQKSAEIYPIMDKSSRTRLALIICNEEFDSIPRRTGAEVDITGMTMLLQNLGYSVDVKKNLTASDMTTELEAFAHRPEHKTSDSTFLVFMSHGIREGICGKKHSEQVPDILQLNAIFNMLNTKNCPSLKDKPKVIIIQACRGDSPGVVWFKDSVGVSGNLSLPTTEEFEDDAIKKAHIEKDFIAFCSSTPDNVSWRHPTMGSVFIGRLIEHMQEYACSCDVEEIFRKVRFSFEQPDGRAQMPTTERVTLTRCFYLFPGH
Set-up: species or system Escherichia coli.

For series [6], the target named is Aldo-keto reductase family 1 member B1 (Rattus norvegicus, UniProt P07943). Format: tissue-based, Lens of camera-type eye.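 Note: inhibition of aldose reductase enzyme activity, measured with DL-glyceraldehyde as the substrate; in other assays of this panel Not Active means under 50% inhibition at 10 µM.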
Series [7] addresses T2, Alpha-1A adrenergic receptor (Rattus norvegicus, UniProt P43140).
T2 sequence (P43140 whole entry): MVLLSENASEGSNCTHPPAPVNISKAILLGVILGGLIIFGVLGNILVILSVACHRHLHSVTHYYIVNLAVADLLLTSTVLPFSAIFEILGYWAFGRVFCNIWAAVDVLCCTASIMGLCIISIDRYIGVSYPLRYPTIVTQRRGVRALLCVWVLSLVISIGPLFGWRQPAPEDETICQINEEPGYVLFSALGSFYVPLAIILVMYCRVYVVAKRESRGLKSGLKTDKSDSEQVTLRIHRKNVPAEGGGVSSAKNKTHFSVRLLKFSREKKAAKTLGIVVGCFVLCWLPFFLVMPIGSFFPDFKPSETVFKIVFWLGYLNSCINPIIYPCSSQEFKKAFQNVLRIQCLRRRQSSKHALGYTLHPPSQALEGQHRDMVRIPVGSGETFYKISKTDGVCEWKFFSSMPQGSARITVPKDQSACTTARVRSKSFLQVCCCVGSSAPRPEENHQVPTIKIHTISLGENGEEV
Put plainly: DRUGMATRIX: Alpha-1A adrenergic receptor radioligand binding (ligand: prazosin). The conditions noted are these: Not Active = under 50% inhibition at 10 µM; for Ki: read-out: Ki. Format: cell membranes, Wistar, Submaxillary gland, Membrane.

Mitogen-activated protein kinase 1, sequence (P28482 whole entry): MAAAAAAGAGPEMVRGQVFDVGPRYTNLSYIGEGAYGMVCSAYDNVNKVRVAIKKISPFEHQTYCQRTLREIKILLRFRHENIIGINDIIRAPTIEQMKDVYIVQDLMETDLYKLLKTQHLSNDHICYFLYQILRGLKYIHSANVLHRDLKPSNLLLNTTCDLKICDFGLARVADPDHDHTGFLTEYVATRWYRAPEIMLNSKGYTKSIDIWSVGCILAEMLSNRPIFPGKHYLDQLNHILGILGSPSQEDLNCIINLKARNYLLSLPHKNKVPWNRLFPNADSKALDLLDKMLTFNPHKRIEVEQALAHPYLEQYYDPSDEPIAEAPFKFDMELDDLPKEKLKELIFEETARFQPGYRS

As a reminder, the IC50 is the concentration at which inhibition is half-maximal. For orientation: Ki means a dissociation constant, usually derived from enzyme kinetics or from competition with a known ligand. Turning to `O=C(c1ccccc1C(F)(F)F)N1CCC(Cc2ccccc2)CC1`, the IC50 entry in series [1], in series [2], in series [3], in series [4], in series [5] and in series [6] was “Not Active” in each case. For the same compound, in series [7], the half-inhibitory concentration (IC50) result was “Not Active”. Also, the Ki entry in series [2], in series [3] and in series [4] was “Not Active” each time.
Regarding `O=C/C=C/c1ccccc1`, the IC50 entry in series [1], in series [2], in series [3], in series [4], in series [5] and in series [6] was “Not Active” in each case. For the same compound, in series [7], the IC50 result was “Not Active”. Also, the inhibitory constant (Ki) entry in series [2], in series [3] and in series [4] was “Not Active” in each case.
Take `Nc1ccc2c3c(cccc13)C(=O)NC2=O`: the half-inhibitory concentration (IC50) result in series [1], in series [2], in series [3], in series [4], in series [5] and in series [6] was “Not Active” each time. The IC50 entry in series [7] is “Not Active”. Besides, the Ki result in series [2], in series [3] and in series [4] was “Not Active” in each case.
As to `COc1ccc(C(=O)N2CCCC2=O)cc1`, the IC50 entry in series [1], in series [2], in series [3], in series [4], in series [5] and in series [6] was “Not Active” each time. Further, the half-maximal inhibitory concentration (IC50) entry in series [7] is “Not Active”. Moreover, the inhibition constant Ki result in series [2], in series [3] and in series [4] was “Not Active” throughout.
Consider `O=c1cnn([C@@H]2O[C@H](CO)[C@@H](O)[C@H]2O)c(=O)[nH]1` [6-AZAURIDINE], for which the IC50 result in series [1], in series [2], in series [3], in series [4], in series [5] and in series [6] was “Not Active” in each case. Moreover, the half-inhibitory concentration (IC50) result in series [7] is “Not Active”. The Ki entry in series [2], in series [3] and in series [4] was “Not Active” throughout.
For `NCCCC(O)(P(=O)(O)O)P(=O)(O)O` [ALENDRONIC ACID], the concentration for half-maximal inhibition (IC50) entry in series [1], in series [2], in series [4], in series [5], in series [6] and in series [7] was “Not Active” each time. In addition, the Ki entry in series [2] and in series [4] was “Not Active” in each case.
With `CN1[C@@H]2CC[C@H]1C[C@@H](OC(=O)C(CO)c1ccccc1)C2` (stereo not given in full) [ATROPINE], the IC50 entry in series [1], in series [2], in series [4], in series [5], in series [6] and in series [7] was “Not Active” throughout. Further, the inhibition constant (Ki) result in series [2] and in series [4] was “Not Active” each time.
As for `CN/C(=N\CCSCc1nc[nH]c1C)NC#N` [CIMETIDINE], the IC50 result in series [1], in series [2], in series [4], in series [5], in series [6] and in series [7] was “Not Active” throughout. Besides, the inhibition constant Ki result in series [2] and in series [4] was “Not Active” in each case.
In the case of `COc1cc(N)c(Cl)cc1C(=O)NC1CCN(CCCOc2ccc(F)cc2)CC1OC` (stereo not given) [CISAPRIDE], the concentration for half-maximal inhibition (IC50) result in series [1] is “Not Active”; in series [2], “Not Active”; in series [4] (read-out: IC50), 177 nM; in series [5], “Not Active”; in series [6], “Not Active”; in series [7] (read-out: IC50), 120 nM. Besides, the Ki result in series [2] is “Not Active”; in series [4] (read-out: Ki), 109 nM; in series [7], 49 nM.
In the case of `C[C@@H]1C[C@H]2[C@@H]3CCC4=CC(=O)C=C[C@]4(C)[C@@]3(F)[C@@H](O)C[C@]2(C)[C@@]1(O)C(=O)CO` [DEXAMETHASONE], the IC50 entry in series [1], in series [2], in series [4], in series [5], in series [6] and in series [7] was “Not Active” throughout. Moreover, the inhibitory constant (Ki) result in series [2] and in series [4] was “Not Active” throughout.
Regarding `COc1cc([C@@H]2c3cc4c(cc3[C@@H](O[C@@H]3O[C@@H]5CO[C@@H](C)O[C@H]5[C@H](O)[C@H]3O)[C@H]3COC(=O)[C@H]23)OCO4)cc(OC)c1O` [ETOPOSIDE], the IC50 result in series [1], in series [2], in series [4], in series [5], in series [6] and in series [7] was “Not Active” throughout. In addition, the Ki entry in series [2] and in series [4] was “Not Active” in each case.
As to `COc1ccc2c3c1O[C@H]1C[C@@H](O)C=C[C@@]31CCN(C)C2` [GALANTAMINE], the IC50 result in series [1], in series [2], in series [4], in series [5], in series [6] and in series [7] was “Not Active” each time. In addition, the Ki result in series [2] and in series [4] was “Not Active” throughout.
For `CC(C)=CCC/C(C)=C/CO` [GERANIOL], the IC50 result in series [1], in series [2], in series [4], in series [5], in series [6] and in series [7] was “Not Active” each time. For the same compound, the Ki result in series [2] and in series [4] was “Not Active” each time.
With `CC(=O)[C@@]1(O)CC[C@H]2[C@@H]3CCC4=CC(=O)CC[C@]4(C)[C@H]3CC[C@@]21C` [HYDROXYPROGESTERONE], the half-inhibitory concentration (IC50) entry in series [1], in series [2], in series [4], in series [5], in series [6] and in series [7] was “Not Active” each time. Besides, the Ki result in series [2] and in series [4] was “Not Active” throughout.
Take `COC1=C(OC)C(=O)C(CCCCCCCCCCO)=C(C)C1=O` [IDEBENONE]: the 50% inhibitory concentration (IC50) result in series [1], in series [2], in series [4], in series [5], in series [6] and in series [7] was “Not Active” in each case. In addition, the inhibition constant (Ki) result in series [2] and in series [4] was “Not Active” in each case.
For `CC(C)NCC(O)COc1cccc2[nH]ccc12` (stereo not given) [PINDOLOL], the IC50 entry in series [1], in series [2], in series [4], in series [5], in series [6] and in series [7] was “Not Active” each time. Further, the Ki entry in series [2] and in series [4] was “Not Active” throughout.
With `COc1cc2nc(N3CCN(C(=O)c4ccco4)CC3)nc(N)c2cc1OC` [PRAZOSIN], the IC50 entry in series [1], in series [2], in series [3], in series [4], in series [5] and in series [6] was “Not Active” each time. Besides, the inhibitory constant (Ki) result in series [2], in series [3] and in series [4] was “Not Active” throughout.
As for `CCCNCC(O)COc1ccccc1C(=O)CCc1ccccc1` (stereo not given) [PROPAFENONE], the IC50 result in series [1] is “Not Active”; in series [2] it was “Not Active”; in series [4], “Not Active”; in series [5] it was “Not Active”; in series [6], “Not Active”; in series [7] (read-out: IC50), 6150 nM. Besides, the inhibition constant (Ki) entry in series [2] is “Not Active”; in series [4], “Not Active”; in series [7], 2490 nM.
As to `CC(C)c1cccc(C(C)C)c1O` [PROPOFOL], the IC50 result in series [1], in series [2], in series [4], in series [5], in series [6] and in series [7] was “Not Active” throughout. For the same compound, the Ki result in series [2] and in series [4] was “Not Active” in each case.

For the origin of these results see ChEMBL document CHEMBL1909046, “DrugMatrix in vitro pharmacology data”.
